# Assay: in vitro
# Conditions: human, hela cells, % viability
row,Compound,"viability at 28.5 h, 10 µM [%]"
1,CSc1ccc(-n2ncc(-c3ccc(F)cc3F)n2)cc1 [CBK112728],91.3
2,COc1ccc2c(c1)OC1(CCN(C(=O)c3cc(OC)c(C)c(OC)c3)CC1)NC2=O [CBK166244],82.6
3,Cc1cc(Cl)c(OCCNCCO)c(Br)c1 [CBK265066G],122
4,CC(C)(C)OC(=O)N1CCC(Oc2nccc3c2ccn3Cc2ccc(S(C)(=O)=O)cc2)CC1 [CBK132881],89.2
5,CCC#CC(=O)Nc1ccc(N2CCNCC2)nc1 [CBK004746T],101
6,CS(=O)(=O)N1CC2(CCN(CC3CCCCC3)CC2)c2ccccc21 [CBK084018],96.8
7,CCOc1ccc(CN(C)CC(=O)Nc2cc(C)no2)cc1 [CBK305605],79.8
8,CCCCNCCOC1CCC[C@@H]1Cl (some centres unmarked) [CBK009839],97.7
9,Cc1cc(OC(F)(F)F)ccc1NS(=O)(=O)c1cnn(-c2ccccc2)c1C [CBK062354],91.1
10,CCCCn1cnc2c(c1=O)c1nc3ccccc3nc1n2CCc1ccc(OC)cc1 [CBK269538],85.7
11,CC(=O)Nc1cccc(-n2nnnc2SC2CCCC2)c1 [CBK305996],95.3
12,CC(NC(=O)Cn1c(=O)oc2ccc(Cl)cc21)C1CC2CCC1C2 (centres unmarked) [CBK281636],87.7
13,CC(C)(C)OC(=O)N1CCC2(CC1)NC(=O)c1cc(-c3cccc(S(C)(=O)=O)c3)ccc1O2 [CBK131967],102
14,COc1ccc(CCN2CCC(Oc3nccnc3NS(C)(=O)=O)CC2)cc1OC [CBK084285],103
15,O=C(Cc1ccccc1Cl)NCc1nnc(-c2cccs2)o1 [CBK284643],96.4
16,COC(=O)C[C@@H](C)NC(=O)[C@](OC)(c1ccccc1)C(F)(F)F [CBK017864],98.6
17,CCC(C)NC(=O)Cn1cccc2cc(C3CCNCC3)nc1-2 (centres unmarked) [CBK284681],110
18,CCC(Sc1nc(C)cc(C)n1)C(=O)Nc1ccc(NC(C)=O)cc1 (centres unmarked) [CBK269804],89
19,O=C(O)c1ccc(-c2ccc(/C=C/c3nc(O)c([N+](=O)[O-])c(=O)[nH]3)o2)cc1Cl [CBK267354],88.1
20,Cc1cc(C)n(CCCn2cncc2-c2ccc3c(c2)CC(C)N3C)n1 (centres unmarked) [CBK281773],62
21,c1ccc(CN2C[C@H]3CCc4c[nH]nc4[C@H]3C2)nc1 [CBK282108],87
22,CC(Oc1cccc(Cl)c1)C(=O)O/N=C(\N)Cc1cccc2ccccc12 (centres unmarked) [CBK266033],90.3

row,Compound,"viability at 28.5 h, 10 µM [%]"
1,O=C(NC1(c2ccccc2)CC1)c1cc(-n2cnnc2)ccc1Cl [CBK282777],97.2
2,OCCCNCC(O)CN1c2ccccc2Sc2ccccc21 (centres unmarked) [CBK027632G],98.4
3,O=[N+]([O-])c1ccc(S(=O)(=O)N2CCN(S(=O)(=O)c3ccc(Cl)cc3)CC2)cc1 [CBK264312],118
4,Cc1ccccc1NC(=O)NCCCN1CCN(C)CC1 [CBK267837],85.2
5,Cc1cc(C)n2c(Nc3ccc(S(N)(=O)=O)cc3)nnc2n1 [CBK267601],110
6,O=C(NCCN1CCC(O)(c2cccc(F)c2)CC1)c1cccs1 [CBK282450],112
7,CS(=O)(=O)Nc1ccc(N2CCNCC2)c2ccccc12 [CBK059355C],79.3
8,CCCCC(c1cccnc1)N(C)C(=O)CCc1ccnn1C (centres unmarked) [CBK306664],117
9,CC(=O)Nc1ccc(S(=O)(=O)Nc2nnc(Cc3ccc(Cl)cc3)s2)cc1 [CBK045515],97.9
10,COc1ccc(N2CC(NC(=O)Nc3ccccn3)CC2=O)cc1 (centres unmarked) [CBK287642],96.9
11,CCOc1ccc(-c2cncc(Nc3cccc(C(F)(F)F)c3)n2)cc1 [CBK065798],50
12,CCOC(=O)CCCNC(=O)N(CC)Cc1ccccc1 [CBK155252],106
13,CCc1cc(CNC(=O)c2cc(C)nc3c(C)cccc23)on1 [CBK281554],108
14,CC1=CCC(C(=O)O)C(C(=O)Nc2ccccc2NC(=O)c2ccc(C(F)(F)F)cc2)C1 (centres unmarked) [CBK265794],99.9
15,CCCC(=O)N1CCC(c2nc3ccccc3cc2NC(C)=O)CC1 [CBK285258],78.4
16,CC1OCCC12CN(c1cc(CO)c(F)cn1)CCO2 (centres unmarked) [CBK304775],102
17,CN1CCC(N(C)C(=O)Nc2ccc(C(N)=O)cc2)C1 (centres unmarked) [CBK156015],93.8
18,CCC(CC)(CC(=O)Nc1ccc(N2CCCC2=O)c(C)c1)C(=O)O [CBK297881],101
19,Cc1ccc(C)c(S(=O)(=O)NC(Cc2c[nH]c3ccccc23)C(=O)O)c1 (centres unmarked) [CBK266816],105
20,Cc1nc(CN2C(=O)CC(Cc3cnn(C)c3)C2=O)nc2ccccc12 (centres unmarked) [CBK305415],105
21,Clc1ccc(Nc2nnc(-c3[nH]ncc3NCc3ccncc3)o2)cc1 [CBK288588],99
22,COc1ccc(-c2cc(C(=O)NCC(=O)O)c(C)o2)cc1OC [CBK287130],86.7

row,Compound,"viability at 28.5 h, 10 µM [%]"
1,Cc1cc(F)c(S(N)(=O)=O)cc1NC(=O)c1cccc(Br)c1 [CBK051488],90.9
2,COc1cc(NC(=O)Cc2cccc3ccccc23)c(C(=O)O)cc1OC [CBK268206],99.9
3,CNC(=O)c1nn(CCCc2ccc(OC)cc2)c2ccccc12 [CBK105842],109
4,CCCCc1nccc(-c2ccc(OCC)c(C(=O)O)c2)n1 [CBK307429],82.8
5,Cc1cnn(CCNc2cc(C(C)C)nc3ccnn23)c1 [CBK306792],91.5
6,Cc1c(CNc2nnc(C(C)(C)C)o2)cnn1C [CBK306439],83.5
7,Clc1ccc(OC/C=C2\Oc3ccc(Cl)cc3C2N2CCOCC2)c(Cl)c1 (centres unmarked) [CBK262753],94.5
8,Cn1nc(-c2ccc(F)cc2)cc1C(=O)NCCn1ccnc1 [CBK281576],87.8
9,O=C(O)CCCNS(=O)(=O)c1ccc(C2CCCCC2)cc1 [CBK299800],95.2
10,N#Cc1c(C(F)(F)F)cc(-c2cccs2)nc1SCC(O)CN1CCSCC1 (centres unmarked) [CBK265947],88.2
11,O=C(NCc1ccccc1)C1(c2ccccc2)CCCC1 [CBK149540],111
12,Cc1cc(C)n(C(C)C(=O)NCC2(N(C)C)CCCC2)n1 (centres unmarked) [CBK281713],107
13,COc1ccc(C2CC(=O)c3c(C)n[nH]c3C2)cc1 (centres unmarked) [CBK287911],114
14,Cn1cc(CN2CCCN(C(=O)c3cc4ccccc4[nH]3)CC2)cn1 [CBK304920],96
15,COc1ccc(-c2ccccc2NC(=O)C2CC(=O)N(Cc3cccc(F)c3)C2)cc1 (centres unmarked) [CBK285937],89.3
16,O=C(NCc1ccc(-c2csnn2)cc1)c1c(F)cccc1F [CBK149310],86
17,CN1CCC(N2CCN(C(=O)c3ccc4nc[nH]c4c3)CC2)CC1 [CBK149099],94.7
18,COc1ccccc1CCCN1CCC2(C1)c1[nH]c3ccccc3c1CCN2S(C)(=O)=O (centres unmarked) [CBK074095],113
19,O=C1NC2(CCN(C(=O)Cc3ccc(F)cc3)CC2)Oc2ccc(-c3ccccc3)cc21 [CBK115832],93.5
20,Cc1cc(NS(=O)(=O)c2ccc(NC(=S)NCC3CCCO3)cc2)no1 (centres unmarked) [CBK268160],101
21,COCc1nnc(Sc2nccc(C(F)(F)F)n2)s1 [CBK093790],99.5
22,COc1ccc(S(=O)(=O)Nc2ccc(S(=O)(=O)Nc3nccs3)cc2)cc1C [CBK266011],101

row,Compound,"viability at 28.5 h, 10 µM [%]"
1,Nc1ncc(-c2cc(C(F)(F)F)cc(C(F)(F)F)c2)nc1N1CCC[C@@H]1CO [CBK063501],93.3
2,O=C(O)c1cc(-c2cccnc2)nc2ccccc12 [CBK262141K],103
3,COCCN(Cc1ccc(OC)cc1)c1c(C)nc2ccc(C(=O)Nc3ccc(NC(C)=O)cc3)cn12 [CBK146111],99.3
4,O=C(O)CCNS(=O)(=O)c1cccc(F)c1 [CBK267264],115
5,CCCn1cc(CN2C3CCC2CC(O)(c2ccc(F)cc2)C3)cn1 (centres unmarked) [CBK282971],91.5
6,COc1ccc(C(C)C)cc1-c1cncc(NCCc2c[nH]c3ccccc23)n1 [CBK065174],96.5
7,COC(=O)c1cnn2c(C)c(Cc3cccc(Br)c3)c(C)nc12 [CBK160273],90.4
8,CNC(=O)C1(Cc2ccccc2-c2cccs2)CCN(C(=O)Cc2ccc(C)cc2)CC1 [CBK285697],95
9,Nc1ccc(-c2cn3ccnc3c(Nc3ccc(Cl)cc3)n2)cc1 [CBK066453],87
10,COc1ccc(C(=O)N(C)C)cc1OC [CBK015550],115
11,O=c1c2ccccc2nc(CSc2[nH]cnc3ncnc2-3)n1-c1cccc(C(F)(F)F)c1 [CBK264991],105
12,CSc1nsc(SCC(=O)OC2CC3CCC2(C)C3(C)C)n1 (centres unmarked) [CBK268941],92.5
13,Cc1ccc(-c2csc(NC(=O)c3ccc(F)cc3)n2)cc1 [CBK095107],85.2
14,CCOC(=O)C1(Cc2cc(-c3ccccc3F)no2)CCCNC1 (centres unmarked) [CBK284577],85.2
15,CS(=O)(=O)N1CCc2cc(C(=O)Cn3nc(C(=O)O)c4ccccc4c3=O)ccc21 [CBK297000],80.4
16,CN(C)CCCn1nc2n(c1=O)-c1ccccc1SC(c1ccccc1)C2 (centres unmarked) [CBK016063],105
17,CC(=O)Nc1ccc(CC(C(=O)O)c2ccccc2)cc1 (centres unmarked) [CBK286600],98.8
18,CC(C)CC(=O)N1CCN(Cc2nc3sc4c(c3c(=O)[nH]2)CCC4)CC1 [CBK305014],86.4
19,O=C(CSc1nnc(-c2ccccc2)c(-c2ccccc2)n1)Nc1ccc([N+](=O)[O-])cc1 [CBK263406],109
20,CCCN1CCC(CNC(=O)c2cc3ccc(OC)cc3n2C)CC1 [CBK282542],99.9
21,Cc1ccc(NS(=O)(=O)c2cccs2)cc1 [CBK045362],64
22,CCCc1cc(C(=O)OC)c(NC(=O)C2C3CCC(C3)C2C(=O)O)s1 (centres unmarked) [CBK057885],98.5

# Same assay, conditions: human, hela cells, % viability, bulk resorufin, single well
row,Compound,"viability at 28.5 h, 10 µM [%]"
1,Cc1ccc(Cn2nc(NC(=O)Oc3ccccc3)c3ccccc32)cc1 [CBK048407],84.2

# Reference: publication PMC12040169 (PLOS Biology, 2025)
